# Measurements reported in patent publication US20040186081A1, “Naaladase inhibitors for treating opioid tolerance” (Guilford Pharmaceuticals Inc., priority 2003, published 2004).
# Target: NAALADase (Homo sapiens, UniProt Q04609)
# Assay: In vitro inhibition of NAALADase activity
# Format: biochemical
# Settings: read-out: IC50
# NAALADase, sequence (Q04609 whole entry): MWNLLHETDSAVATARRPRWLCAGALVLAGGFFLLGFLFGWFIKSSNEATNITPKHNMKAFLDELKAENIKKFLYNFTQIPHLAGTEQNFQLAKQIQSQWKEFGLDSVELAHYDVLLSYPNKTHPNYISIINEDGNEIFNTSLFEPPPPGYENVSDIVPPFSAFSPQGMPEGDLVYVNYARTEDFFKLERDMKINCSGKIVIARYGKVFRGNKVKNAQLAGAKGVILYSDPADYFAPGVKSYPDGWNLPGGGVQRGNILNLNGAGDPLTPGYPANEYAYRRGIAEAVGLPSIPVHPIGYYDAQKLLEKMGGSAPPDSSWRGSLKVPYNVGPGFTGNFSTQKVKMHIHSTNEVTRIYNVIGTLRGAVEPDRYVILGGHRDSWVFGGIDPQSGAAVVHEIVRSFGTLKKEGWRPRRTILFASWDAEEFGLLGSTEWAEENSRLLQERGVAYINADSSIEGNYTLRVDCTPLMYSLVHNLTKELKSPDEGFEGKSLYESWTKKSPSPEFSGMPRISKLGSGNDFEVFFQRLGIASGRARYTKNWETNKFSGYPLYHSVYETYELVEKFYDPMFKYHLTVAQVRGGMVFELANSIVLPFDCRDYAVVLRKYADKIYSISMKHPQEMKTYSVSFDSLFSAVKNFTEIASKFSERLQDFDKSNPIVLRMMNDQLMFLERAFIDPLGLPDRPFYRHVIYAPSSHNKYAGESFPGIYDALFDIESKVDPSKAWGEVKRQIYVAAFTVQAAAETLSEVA
row,IC50 [nM],SMILES
1,≥ 100000,"COC(=O)c1cccc(-c2cccc(OCCC(=O)NO)c2C(=O)OC)c1 [3-(2-Hydroxycarbamoyl-ethoxy)-biphenyl-2,3′-dicarboxylic acid dimethyl ester]"
2,49,O=C(O)c1ccccc1Oc1cccc(CC(CCCS)C(=O)O)c1 (stereo not drawn) [3-(2-carboxyphenoxy)-alpha-(3-mercaptopropyl)-benzenepropanoic acid]
3,4.28,"O=C(O)c1ccc(-c2cccc(CCS)c2C(=O)O)cc1 [3-(2-mercaptoethyl)-[1,1′-biphenyl]-2,4′-dicarboxylic acid]"
4,6050,O=C(O)c1cccc(CCS)c1 [3-(2-mercaptoethyl)-benzoic acid]
5,9100,"O=C(CCCOc1cccc(-c2cccc(C(=O)O)c2)c1C(=O)O)NO [3-(3-Hydroxycarbamoyl-propoxy)-biphenyl-2,3′-dicarboxylic acid]"
6,3780,O=C(O)c1cccc(CS)c1 [3-(mercaptomethyl)-benzoic acid]
7,2570,O=C(CSCCCC(Cc1cc(OCc2ccccc2)cc(C(=O)O)c1)C(=O)O)NO (stereo not shown) [3-Benzyloxy-5-(2-carboxy-5-hydroxycarbamoylmethyl-sulfanylpentyl)-benzoic acid]
8,2460,O=C(CSCCCC(Cc1cc(Br)cc(C(=O)O)c1)C(=O)O)NO (stereo not shown) [3-Bromo-5-(2-carboxy-5-hydroxycarbamoyl-methylsulfanylpentyl)-benzoic acid]
9,40800,O=C(COc1cccc(C(=O)O)c1)NO [3-Hydroxycarbamoylmethoxy-benzoic acid]
10,≥ 100000,"COC(=O)c1cccc(-c2cccc(OCC(=O)NO)c2C(=O)OC)c1 [3-Hydroxycarbamoylmethoxy-biphenyl-2,3′-dicarboxylic acid dimethyl ester]"
11,27600,"O=C(COc1cccc(-c2cccc(C(=O)O)c2)c1C(=O)O)NO [3-Hydroxycarbamoylmethoxy-biphenyl-2,3′-dicarboxylic acid]"
12,24,O=C(O)c1cccc(SC(CCCS)C(=O)O)c1 (stereo not shown) [3-[1-carboxy-4-mercaptobutyl)thio]-benzoic acid]
13,41500,CCC(SCC(Cc1cccc(C(=O)O)c1)C(=O)O)C(=O)NO (stereo not shown) [3-[2-Carboxy-3-(1-hydroxycarbamoyl-propylsulfanyl)-propyl]-benzoic acid]
14,6050,O=C(CCCSCC(Cc1cccc(C(=O)O)c1)C(=O)O)NO (stereo not shown) [3-[2-Carboxy-3-(3-hydroxycarbamoyl-propylsulfanyl)-propyl]-benzoic acid]
15,19000,CCC(SCCC(Cc1cccc(C(=O)O)c1)C(=O)O)C(=O)NO (stereo not shown) [3-[2-Carboxy-4-(1-hydroxycarbamoyl-propylsulfanyl)-butyl]-benzoic acid]
16,2800,CC(C)C(SCCCC(Cc1cccc(C(=O)O)c1)C(=O)O)C(=O)NO (stereo not shown) [3-[2-Carboxy-5-(1-hydroxycarbamoyl-2-methyl-propylsulfanyl)-pentyl]-benzoic acid]
17,1530,CCCC(SCCCC(Cc1cccc(C(=O)O)c1)C(=O)O)C(=O)NO (stereo not shown) [3-[2-Carboxy-5-(1-hydroxycarbamoyl-butylsulfanyl)-pentyl]-benzoic acid]
18,3290,CCC(SCCCC(Cc1cccc(C(=O)O)c1)C(=O)O)C(=O)NO (stereo not shown) [3-[2-Carboxy-5-(1-hydroxycarbamoyl-propylsulfanyl)-pentyl]-benzoic acid]
19,113,O=C(CCSCCCC(Cc1cccc(C(=O)O)c1)C(=O)O)NO (stereo not shown) [3-[2-Carboxy-5-(2-hydroxycarbamoyl-ethylsulfanyl)-pentyl]-benzoic acid]
20,7580,O=C(CCCCSCCCC(Cc1cccc(C(=O)O)c1)C(=O)O)NO (stereo not shown) [3-[2-Carboxy-5-(4-hydroxycarbamoyl-butylsulfanyl)-pentyl]-benzoic acid]

row,IC50 [nM],SMILES
1,1120,O=C(O)c1cccc(CC(CCCSC(C(=O)NO)c2ccccc2)C(=O)O)c1 (stereo not shown) [3-[2-Carboxy-5-(hydroxycarbamoyl-phenyl-methylsulfanyl)-pentyl]-benzoic acid]
2,92700,O=C(CCc1cccc(OCc2cccc(C(=O)O)c2)c1)NO [3-[3-(2-Hydroxycarbamoyl-ethyl)-phenoxymethyl]-benzoic acid]
3,286,O=C(O)CNC(=O)c1cccc(CC(CCCS)C(=O)O)c1 (stereo not drawn) [3-[[(carboxymethyl)amino]carbonyl]-alpha-(3-mercaptopropyl)-benzenepropanoic acid]
4,146,O=C(O)c1ccc(CC(CCCS)C(=O)O)cc1Br (stereo not drawn) [3-bromo-4-carboxy-alpha-(3-mercaptopropyl)-benzenepropanoic acid]
5,2.5,O=C(O)c1cc(Br)cc(CC(CCCS)C(=O)O)c1 (stereo not drawn) [3-bromo-5-carboxy-alpha-(3-mercaptopropyl)-benzenepropanoic acid]
6,1200,O=C(O)c1cccc(CC(CCCS)C(=O)O)c1Cl (stereo not drawn) [3-carboxy-2-chloro-alpha-(3-mercaptopropyl)-benzenepropanoic acid]
7,175,O=C(O)c1cc(CC(CCCS)C(=O)O)ccc1Cl (stereo not drawn) [3-carboxy-4-chloro-alpha-(3-mercaptopropyl)-benzenepropanoic acid]
8,12,O=C(O)c1cc(CC(CCCS)C(=O)O)ccc1F (stereo not drawn) [3-carboxy-4-fluoro-alpha-(3-mercaptopropyl)-benzenepropanoic acid]
9,1,"CC(S)CCC(Cc1cc(C(=O)O)cc(C(C)(C)C)c1)C(=O)O (stereo not drawn) [3-carboxy-5-(1,1-dimethylethyl)-alpha-(3-mercaptobutyl)-benzenepropanoic acid]"
10,0.05,"CC(C)(C)c1cc(CC(CCCS)C(=O)O)cc(C(=O)O)c1 (stereo not drawn) [3-carboxy-5-(1,1-dimethylethyl)-alpha-(3-mercaptopropyl)-benzenepropanoic acid]"
11,30,CC(S)CCC(Cc1cccc(C(=O)O)c1)C(=O)O (stereo not drawn) [3-carboxy-alpha-(3-mercaptobutyl)-benzenepropanoic acid]
12,13,COc1cc(CC(CCCS)C(=O)O)cc(C(=O)O)c1 (stereo not drawn) [3-carboxy-alpha-(3-mercaptopropyl)-5-methoxy-benzenepropanoic acid]
13,3,O=C(O)c1cc(CC(CCCS)C(=O)O)cc([N+](=O)[O-])c1 (stereo not drawn) [3-carboxy-alpha-(3-mercaptopropyl)-5-nitro-benzenepropanoic acid]
14,5,O=C(O)c1cc(CC(CCCS)C(=O)O)cc(Oc2ccccc2)c1 (stereo not drawn) [3-carboxy-alpha-(3-mercaptopropyl)-5-phenoxy-benzenepropanoic acid]
15,17,O=C(O)c1cccc(CC(CCCS)C(=O)O)c1 (stereo not drawn) [3-carboxy-alpha-(3-mercaptopropyl)-benzenepropanoic acid]
16,38600,COC(=O)c1cc(CC(C(=O)O)C(=O)NO)cc(C(C)(C)C)c1 (stereo not shown) [3-tert-Butyl-5-(2-carboxy-2-hydroxycarbamoyl-ethyl)-benzoic acid methyl ester]
17,11900,CC(C)(C)c1cc(CC(C(=O)O)C(=O)NO)cc(C(=O)O)c1 (stereo not shown) [3-tert-Butyl-5-(2-carboxy-2-hydroxycarbamoyl-ethyl)-benzoic acid]
18,296,CC(C)(C)c1cc(CC(CC(=O)NO)C(=O)O)cc(C(=O)O)c1 (stereo not shown) [3-tert-Butyl-5-(2-carboxy-3-hydroxycarbamoyl-propyl)-benzoic acid]
19,0.2,CC(C)(C)c1cc(CC(CCC(=O)NO)C(=O)O)cc(C(=O)O)c1 (stereo not shown) [3-tert-Butyl-5-(2-carboxy-4-hydroxycarbamoyl-butyl)-benzoic acid]
20,1060,CC(C)(C)c1cc(CC(CCSCC(=O)NO)C(=O)O)cc(C(=O)O)c1 (stereo not shown) [3-tert-Butyl-5-(2-carboxy-4-hydroxycarbamoylmethyl-sulfanylbutyl)-benzoic acid]
